This is an account of results in patent US11053234B2 (GlaxoSmithKline Intellectual Property Development Limited, priority 2016, dated 2021).

SMILES strings stand for the structures. Counter-ions that a name gives are not always drawn.

In the assay the target is T1, haematopoietic prostaglandin D synthase (H-PGDS) (Homo sapiens, UniProt O60760).
T1 construct: Full length human H-PGDS cDNA (Invitrogen Ultimate ORF 10H13026) was amplified by PCR; 6-His (N); TEV protease cleavage site (N); made in house; host or cells: E. coli BL21 (DE3*), vector pET22b+
T1 sequence (O60760 whole entry): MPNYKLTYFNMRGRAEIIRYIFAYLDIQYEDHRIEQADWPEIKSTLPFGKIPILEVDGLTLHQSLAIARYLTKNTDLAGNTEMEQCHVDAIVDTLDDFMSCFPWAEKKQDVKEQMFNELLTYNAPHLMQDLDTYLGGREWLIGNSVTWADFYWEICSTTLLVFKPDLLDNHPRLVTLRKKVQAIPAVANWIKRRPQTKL
In words: H-PGDS RapidFire high throughput mass spectrometry assay (conversion of PGH2 to PGD2). In kind it is biochemical. The conditions noted are these: 10 nM H-PGDS, PGH2 formed in situ by COX-2 from arachidonic acid; read-out: Potency Range (mean pIC50) (converted). In a few lines: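 RapidFire SPE–MS read-out calculated percent conversion from relative PGD2 and PGF2α (substrate surrogate) levels. Recombinant full-length human H-PGDS (His-tag, E. coli) turned over PGH2, produced in situ at ˜10 μM by human COX-2 (FLAG-tag, Sf9 cells) acting on arachidonic acid.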
Consider `Cc1cnnc(N2CC(NC(=O)[C@H]3C[C@H](Oc4cccc5scnc45)C3)C2)c1` [Example 241, (trans)-3-(Benzo[d]thiazol-4-yloxy)-N-(1-(5-methylpyridazin-3-yl)azetidin-3-yl)cyclobutanecarboxamide, trifluoroacetic acid salt], for which the IC50 was 10 to 79.4 nM.
For `CC(C)(O)c1cnc(N2CC(NC(=O)[C@H]3C[C@H](Oc4cccc5scnc45)C3)C2)o1` [Example 49, (trans)-3-(Benzo[d]thiazol-4-yloxy)-N-(1-(5-(2-hydroxypropan-2-yl)oxazol-2-yl)azetidin-3-yl)cyclobutanecarboxamide] the value was 10 to 79.4 nM.
For `COc1ccc(F)cc1O[C@H]1C[C@H](C(=O)Nc2cccc(C#N)n2)C1` [Example 159, (trans)-N-(6-Cyanopyridin-2-yl)-3-(5-fluoro-2-methoxyphenoxy)cyclobutanecarboxamide] the value was 10 to 79.4 nM; for `COc1ccc(F)cc1O[C@H]1C[C@H](C(=O)NN2CCc3ccccc32)C1` [Example 146, (trans)-3-(5-Fluoro-2-methoxyphenoxy)-N-(indolin-1-yl)cyclobutanecarboxamide], 10 to 79.4 nM.
For `CC(=O)c1csc(NC(=O)[C@H]2C[C@H](Oc3cccc4scnc34)C2)n1` [Example 68, (trans)-N-(4-Acetylthiazol-2-yl)-3-(benzo[d]thiazol-4-yloxy)cyclobutanecarboxamide] the value was 10 to 79.4 nM.
For `COc1ccc(F)cc1O[C@H]1C[C@H](C(=O)NC2CN(c3ncc(C#N)s3)C2)C1` [Example 147, (trans)-N-(1-(5-Cyanothiazol-2-yl)azetidin-3-yl)-3-(5-fluoro-2-methoxyphenoxy)cyclobutanecarboxamide], the IC50 was 10 to 79.4 nM.
Then `O=C(NC1CCCOC1)N1CC(Oc2cccc3scnc23)C1` (racemic) [Example 90, Racemic 3-(Benzo[d]thiazol-4-yloxy)-N-(tetrahydro-2H-pyran-3-yl)azetidine-1-carboxamide], with 100 to 1000 nM; and `O=C1NCC[C@@H]1NC(=O)N1CC(Oc2cccc3scnc23)C1` [Example 99, (S)-3-(Benzo[d]thiazol-4-yloxy)-N-(2-oxopyrrolidin-3-yl)azetidine-1-carboxamide], with 100 to 1000 nM; and `COc1ccc(F)cc1O[C@H]1C[C@H](C(=O)NC2CCN(C(=O)OC(C)(C)C)C2)C1` (mixture of isomers) [Example 143, tert-butyl 3-((trans)-3-(5-fluoro-2-methoxyphenoxy)cyclobutanecarboxamido)pyrrolidine-1-carboxylate], with 10 to 79.4 nM.
Turning to `CS(=O)(=O)c1ccc(NC(=O)N2CC(Oc3cccc4scnc34)C2)cc1` [Example 306, 3-(Benzo[d]thiazol-4-yloxy)-N-(4-(methylsulfonyl)phenyl)azetidine-1-carboxamide], the IC50 is 10 to 79.4 nM.
Turning to `Cc1nnc(NC(=O)[C@H]2C[C@H](Oc3cccc4cccnc34)C2)s1` [Example 203, (trans)-N-(5-Methyl-1,3,4-thiadiazol-2-yl)-3-(quinolin-8-yloxy)cyclobutanecarboxamide], the IC50 is 10 to 79.4 nM.
For `O=C1Nc2ccccc2C1NC(=O)[C@H]1C[C@H](Oc2cc(F)ccc2OC(F)F)C1` (mixture of isomers) [Example 24, Racemic (trans)-3-(2-(Difluoromethoxy)-5-fluorophenoxy)-N-(2-oxoindolin-3-yl)cyclobutanecarboxamide] the value was 10 to 79.4 nM.
For `O=C(Nc1nccs1)[C@H]1C[C@H](Oc2cccc3cc(F)cnc23)C1` [Example 281, (trans)-3-((3-Fluoroquinolin-8-yl)oxy)-N-(thiazol-2-yl)cyclobutanecarboxamide] the value was 10 to 79.4 nM; for `COc1cc(F)ccc1O[C@H]1C[C@H](C(=O)Nc2nc(C(C)=O)cs2)C1` [Example 276, (trans)-N-(4-Acetylthiazol-2-yl)-3-(4-fluoro-2-methoxyphenoxy)cyclobutanecarboxamide], 10 to 79.4 nM.
Regarding `O=C(Nc1nc(COC(=O)[C@H]2C[C@H](Oc3cc(F)ccc3OC(F)F)C2)cs1)[C@H]1C[C@H](Oc2cc(F)ccc2OC(F)F)C1` [Example 13, (trans)-(2-((trans)-3-(2-(Difluoromethoxy)-5-fluorophenoxy)cyclobutanecarboxamido)thiazol-4-yl)methyl 3-(2-(difluoromethoxy)-5-fluorophenoxy)cyclobutanecarboxylate], the IC50 was 100 to 1000 nM.
For `CC(=O)c1coc(N2CC(NC(=O)[C@H]3C[C@H](Oc4cccc5scnc45)C3)C2)n1` [Example 47, (trans)-N-(1-(4-Acetyloxazol-2-yl)azetidin-3-yl)-3-(benzo[d]thiazol-4-yloxy)cyclobutanecarboxamide] the value was 100 to 1000 nM; for `O=C(Nc1nccs1)[C@H]1C[C@H](Nc2cccc3cccnc23)C1` [Example 221, (trans)-3-(Quinolin-8-ylamino)-N-(thiazol-2-yl)cyclobutanecarboxamide], 100 to 1000 nM; for `O=C(NC1CN(c2ccc(F)cn2)C1)[C@H]1C[C@H](Oc2cccc3scnc23)C1` [Example 44, (trans)-3-(Benzo[d]thiazol-4-yloxy)-N-(1-(5-fluoropyridin-2-yl)azetidin-3-yl)cyclobutanecarboxamide], 10 to 79.4 nM.
For `CC(C)(O)c1cnc(NC(=O)[C@H]2C[C@H](Oc3cccc4cccnc34)C2)s1` [Example 204, (trans)-N-(5-(2-Hydroxypropan-2-yl)thiazol-2-yl)-3-(quinolin-8-yloxy)cyclobutanecarboxamide] the value was 10 to 79.4 nM.
With `C=C(C)c1cnc(NC(=O)[C@H]2C[C@H](Oc3cccc4cccnc34)C2)s1` [Example 205, (trans)-N-(5-(Prop-1-en-2-yl)thiazol-2-yl)-3-(quinolin-8-yloxy)cyclobutanecarboxamide], the IC50 was less than 10 nM.
Then `CC1(NC(=O)[C@H]2C[C@H](Oc3cc(F)cc4scnc34)C2)CN(c2ncccn2)C1` [Example 238, (trans)-3-((6-Fluorobenzo[d]thiazol-4-yl)oxy)-N-(3-methyl-1-(pyrimidin-2-yl)azetidin-3-yl)cyclobutanecarboxamide], with 100 to 1000 nM; and `CC(C)(O)[C@H]1CC[C@H](NC(=O)[C@H]2C[C@H](Oc3cccc4cccnc34)C2)CC1` [Example 225, N-((trans)-4-(2-Hydroxypropan-2-yl)cyclohexyl)-3-(quinolin-8-yloxy)cyclobutanecarboxamide], with 10 to 79.4 nM.
`O=C(Nc1nccs1)[C@H]1C[C@H](Oc2ccc(F)c3cccnc23)C1` [Example 291, (trans)-3-((5-Fluoroquinolin-8-yl)oxy)-N-(thiazol-2-yl)cyclobutanecarboxamide, trifluoroacetic acid salt]: the IC50 is 100 to 1000 nM.
With `CC(C)(C)OC(=O)N1CCC(NC(=O)N2CC(Oc3cccc4scnc34)C2)CC1` [Example 96, tert-butyl 4-(3-(benzo[d]thiazol-4-yloxy)azetidine-1-carboxamido)piperidine-1-carboxylate], the IC50 is 100 to 1000 nM.
For `CC(C)(O)[C@H]1CC[C@H](NC(=O)N2CC(C(F)c3cccc4cccnc34)C2)CC1` (mixture of isomers) [Example 256, Racemic 3-(Fluoro(quinolin-8-yl)methyl)-N-((trans)-4-(2-hydroxypropan-2-yl)cyclohexyl)azetidine-1-carboxamide] the value was 100 to 1000 nM.
For the compound `Cn1nccc1NC(=O)[C@H]1C[C@H](Oc2cccc3scnc23)C1` [Example 249, (trans)-3-(Benzo[d]thiazol-4-yloxy)-N-(1-methyl-1H-pyrazol-5-yl)cyclobutanecarboxamide], the IC50 is 100 to 1000 nM.
Turning to `CC(C)(O)[C@H]1CC[C@H](NC(=O)[C@H]2C[C@H](Oc3cc(F)ccc3OC(F)F)C2)CC1` [Example 34, (trans)-3-(2-(Difluoromethoxy)-5-fluorophenoxy)-N-((trans)-4-(2-hydroxypropan-2-yl)cyclohexyl)cyclobutanecarboxamide], the IC50 is 10 to 79.4 nM.
For `O=C(NC1CN(c2ncc(F)cn2)C1)[C@H]1C[C@H](Oc2cccc3scnc23)C1` [Example 78, (trans)-3-(Benzo[d]thiazol-4-yloxy)-N-(1-(5-fluoropyrimidin-2-yl)azetidin-3-yl)cyclobutanecarboxamide] the value was 10 to 79.4 nM; for `CC(N[C@H]1CC[C@H](NC(=O)[C@H]2C[C@H](Oc3cccc4cccnc34)C2)CC1)C(F)F` (mixture of isomers) [Example 180, Racemic (trans)-N-((trans)-4-((1,1-Difluoropropan-2-yl)amino)cyclohexyl)-3-(quinolin-8-yloxy)cyclobutanecarboxamide], 100 to 1000 nM; for `O=C(Nc1ccccn1)[C@H]1C[C@H](Oc2cccc3cccnc23)C1` [Example 183, (trans)-N-(Pyridin-2-yl)-3-(quinolin-8-yloxy)cyclobutanecarboxamide], 100 to 1000 nM.
On to `COCCO[C@H]1CC[C@H](NC(=O)[C@H]2C[C@H](Oc3cccc4scnc34)C2)CC1` [Example 58, (trans)-3-(Benzo[d]thiazol-4-yloxy)-N-((trans)-4-(2-methoxyethoxy)cyclohexyl)cyclobutanecarboxamide], for which the IC50 was 100 to 1000 nM.
For `COc1cncc(NC(=O)N2CC(Oc3cccc4scnc34)C2)c1` [Example 323, 3-(Benzo[d]thiazol-4-yloxy)-N-(5-methoxypyridin-3-yl)azetidine-1-carboxamide] the value was 10 to 79.4 nM.
For `O=C(Nc1cccc(N2CCOCC2)c1)[C@H]1C[C@H](Oc2cccc3scnc23)C1` [Example 248, (trans)-3-(Benzo[d]thiazol-4-yloxy)-N-(3-morpholinophenyl)cyclobutanecarboxamide] the value was 10 to 79.4 nM; for `CC(C)(O)[C@H]1CC[C@H](NC(=O)[C@H]2C[C@H](Oc3cc(F)ccc3F)C2)CC1` [Example 229, (trans)-3-(2,5-Difluorophenoxy)-N-((trans)-4-(2-hydroxypropan-2-yl)cyclohexyl)cyclobutanecarboxamide], 100 to 1000 nM.
